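Method: 48-hour compound exposure of cells in 96-well plates, five concentrations, linear interpolation of endpoints. GI50: concentration for 50% inhibition of growth.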 Calls of active or inactive are those of the source. Rule as the data show it: active = GI50 up to about 1.1 µM and inactive = higher.
Legend:
Experiment in all cases: DTP human tumour cell line panel, 48 h
RPMI-8226 = system: RPMI-8226
TK-10 = system: TK-10
MOLT-4 = system: MOLT-4
SK-MEL-28 = system: SK-MEL-28
UO-31 = system: UO-31
U-251 = system: U-251
SNB-75 = system: SNB-75
SK-MEL-5 = system: SK-MEL-5
HT-29 = system: HT-29
RXF 393 = system: RXF 393
IGROV-1 = system: IGROV-1
HCT-116 = system: HCT-116
UACC-257 = system: UACC-257
SK-MEL-2 = system: SK-MEL-2
HOP-62 = system: HOP-62
OVCAR-4 = system: OVCAR-4
OVCAR-5 = system: OVCAR-5
SR = system: SR

Measured: GI50

COC12OCCN(C)C1=CC(=O)C1=NNC(C)C12 (stereo not drawn)
inactive: RPMI-8226 > 100 µM | TK-10 > 100 µM | MOLT-4 > 100 µM | SK-MEL-28 > 100 µM | UO-31 > 100 µM | U-251 > 100 µM | SNB-75 > 100 µM | SK-MEL-5 > 100 µM | HT-29 > 100 µM | RXF 393 > 100 µM | IGROV-1 > 100 µM | HCT-116 > 100 µM | UACC-257 > 100 µM

CCc1ccc(Cc2ccc(CC)c(NC(=O)C(=O)Cc3nc4ccccc4nc3C)c2CC)c(CC)c1NC(=O)C(=O)Cc1nc2ccccc2nc1C
inactive: RPMI-8226 > 100 µM | SK-MEL-2 > 100 µM | TK-10 > 100 µM | MOLT-4 40.6 µM | SK-MEL-28 66.7 µM | UO-31 17.7 µM | HOP-62 > 100 µM | U-251 49.7 µM | OVCAR-4 72.3 µM | SNB-75 9.77 µM | SK-MEL-5 > 100 µM | RXF 393 41.4 µM | IGROV-1 > 100 µM | HCT-116 52.5 µM | UACC-257 > 100 µM | OVCAR-5 > 100 µM

Cc1cc(C)nc(NS(=O)(=O)c2ccc(Nc3c4ccccc4nc4c(C(=O)Nc5ccc(S(=O)(=O)Nc6cc(C)on6)cc5)ccc(Cl)c34)cc2)n1
inactive: RPMI-8226 20.6 µM | TK-10 76 µM | MOLT-4 19.5 µM | SK-MEL-28 27.7 µM | UO-31 20.8 µM | HOP-62 21.5 µM | U-251 15.9 µM | OVCAR-4 28.6 µM | SNB-75 31.7 µM | SR 21.1 µM | HT-29 23.4 µM | RXF 393 14.8 µM | HCT-116 17.7 µM | UACC-257 28.9 µM | OVCAR-5 18.7 µM

O=C1CCC(c2nc3ccccc3o2)C(=O)N1 (stereo not drawn)
inactive: SK-MEL-2 > 100 µM | TK-10 > 100 µM | MOLT-4 > 100 µM | SK-MEL-28 > 100 µM | UO-31 > 100 µM | HOP-62 > 100 µM | U-251 > 100 µM | OVCAR-4 > 100 µM | SNB-75 79.1 µM | SK-MEL-5 > 100 µM | SR > 100 µM | HT-29 > 100 µM | RXF 393 > 100 µM | IGROV-1 > 100 µM | HCT-116 > 100 µM | UACC-257 > 100 µM

COc1ccc(Nc2nc3cc(C(F)(F)F)ccc3nc2-c2ccccc2)cc1OC
inactive: SK-MEL-2 48.9 µM | TK-10 15 µM | MOLT-4 > 100 µM | SK-MEL-28 19.8 µM | UO-31 11.8 µM | HOP-62 2.74 µM | U-251 30.9 µM | OVCAR-4 24 µM | SNB-75 28.4 µM | SK-MEL-5 20.3 µM | SR 75.9 µM | HT-29 46.7 µM | RXF 393 11.9 µM | IGROV-1 24.9 µM | HCT-116 12.6 µM | UACC-257 27.2 µM | OVCAR-5 > 100 µM

Clc1ccc(C2SCc3nc4ccccc4n32)c(Cl)c1 (stereo not drawn)
inactive: RPMI-8226 6.92 µM | SK-MEL-2 16.5 µM | TK-10 14.4 µM | MOLT-4 14.1 µM | SK-MEL-28 16.6 µM | UO-31 12.1 µM | HOP-62 14 µM | U-251 17.9 µM | SNB-75 19.3 µM | SK-MEL-5 7.93 µM | SR 14.7 µM | HT-29 16 µM | RXF 393 15.1 µM | IGROV-1 15.5 µM | HCT-116 14 µM | UACC-257 9.79 µM | OVCAR-5 16.2 µM

CCOC1=C2N=C(Cc3ccccc3F)N=C2C(=O)c2ccccc21
inactive: RPMI-8226 > 100 µM | SK-MEL-2 > 100 µM | MOLT-4 > 100 µM | SK-MEL-28 > 100 µM | UO-31 > 100 µM | HOP-62 > 100 µM | U-251 > 100 µM | OVCAR-4 > 100 µM | SNB-75 90.8 µM | SR > 100 µM | HT-29 > 100 µM | RXF 393 > 100 µM | HCT-116 > 100 µM | UACC-257 > 100 µM

NC(CCCNCc1ccccc1)C(=O)O (stereo not drawn)
inactive: RPMI-8226 > 100 µM | SK-MEL-2 > 100 µM | TK-10 > 100 µM | MOLT-4 > 100 µM | SK-MEL-28 > 100 µM | UO-31 > 100 µM | HOP-62 > 100 µM | OVCAR-4 > 100 µM | SNB-75 > 100 µM | SK-MEL-5 > 100 µM | HT-29 > 100 µM | IGROV-1 > 100 µM | HCT-116 > 100 µM | UACC-257 > 100 µM

CCCCCCCCCCn1cccc1/C=C/c1ccc(/C=C/c2cccn2CCCCCCCCCC)cc1
inactive: RPMI-8226 > 100 µM | TK-10 > 100 µM | SK-MEL-28 > 100 µM | UO-31 88.7 µM | HOP-62 > 100 µM | U-251 > 100 µM | OVCAR-4 > 100 µM | SNB-75 > 100 µM | SK-MEL-5 > 100 µM | HT-29 > 100 µM | RXF 393 > 100 µM | IGROV-1 > 100 µM | HCT-116 > 100 µM | UACC-257 > 100 µM | OVCAR-5 > 100 µM

Cc1c2ccncc2c(C)c2c1[nH]c1ccc(OC(C)(C)C)cc12
inactive: RPMI-8226 2.08 µM | SK-MEL-2 2.03 µM | TK-10 4.88 µM | MOLT-4 1.67 µM | SK-MEL-28 1.76 µM | UO-31 1.91 µM | HOP-62 2.88 µM | U-251 2.82 µM | OVCAR-4 1.98 µM | SNB-75 1.85 µM | SK-MEL-5 2.14 µM | HT-29 2.29 µM | IGROV-1 4.7 µM | HCT-116 1.67 µM | UACC-257 1.97 µM | OVCAR-5 11.7 µM

O=C(O)c1cc(S(=O)(=O)N/N=C\c2c3ccccc3[n+]([O-])c3ccccc23)ccc1O
inactive: RPMI-8226 7.48 µM | SK-MEL-2 16.9 µM | TK-10 17.8 µM | MOLT-4 3.8 µM | SK-MEL-28 12.3 µM | UO-31 17.7 µM | HOP-62 7.48 µM | U-251 23.2 µM | OVCAR-4 5.18 µM | SNB-75 2.58 µM | SK-MEL-5 11.7 µM | HT-29 19.5 µM | IGROV-1 22.1 µM | HCT-116 7.55 µM | UACC-257 26.1 µM | OVCAR-5 30.7 µM

N#C/C(=C\c1cc(O)ccc1O)C(N)=O
inactive: RPMI-8226 27.2 µM | SK-MEL-2 42.5 µM | TK-10 50.8 µM | MOLT-4 27 µM | SK-MEL-28 37.1 µM | UO-31 35.7 µM | HOP-62 > 100 µM | U-251 98.4 µM | OVCAR-4 54 µM | SNB-75 14.6 µM | HT-29 38.8 µM | RXF 393 19 µM | IGROV-1 99.5 µM | HCT-116 63.2 µM | UACC-257 28.4 µM | OVCAR-5 > 100 µM

O=C(O)CCNCCCCNCCC(=O)O
inactive: RPMI-8226 > 100 µM | SK-MEL-2 > 100 µM | TK-10 > 100 µM | MOLT-4 > 100 µM | SK-MEL-28 > 100 µM | HOP-62 > 100 µM | U-251 > 100 µM | OVCAR-4 > 100 µM | SNB-75 > 100 µM | SK-MEL-5 > 100 µM | HT-29 > 100 µM | RXF 393 > 100 µM | IGROV-1 > 100 µM | HCT-116 > 100 µM | OVCAR-5 > 100 µM

C=CCOC(C)n1c(C)c(Br)c(=O)[nH]c1=O (stereo not drawn)
inactive: SK-MEL-2 > 100 µM | TK-10 > 100 µM | MOLT-4 > 100 µM | SK-MEL-28 > 100 µM | UO-31 > 100 µM | U-251 > 100 µM | SNB-75 > 100 µM | SK-MEL-5 > 100 µM | SR > 100 µM | HT-29 > 100 µM | RXF 393 > 100 µM | IGROV-1 > 100 µM | HCT-116 > 100 µM | UACC-257 > 100 µM | OVCAR-5 > 100 µM

COC(=O)C1=C(C(=O)OC)C2(CCCCCC2=O)OC1=O (stereo not drawn)
inactive: RPMI-8226 > 100 µM | SK-MEL-2 > 100 µM | TK-10 > 100 µM | MOLT-4 > 100 µM | SK-MEL-28 > 100 µM | HOP-62 > 100 µM | U-251 > 100 µM | OVCAR-4 > 100 µM | SNB-75 > 100 µM | SK-MEL-5 > 100 µM | HT-29 > 100 µM | RXF 393 > 100 µM | IGROV-1 > 100 µM | HCT-116 > 100 µM | UACC-257 > 100 µM | OVCAR-5 > 100 µM

CCOC(=O)C(Cc1ccccc1)NC(=O)c1nc[nH]c1/N=N/N(C)C (stereo not drawn)
inactive: RPMI-8226 > 100 µM | SK-MEL-2 > 100 µM | TK-10 > 10 µM | MOLT-4 > 100 µM | SK-MEL-28 > 100 µM | UO-31 > 100 µM | HOP-62 > 100 µM | U-251 > 100 µM | OVCAR-4 > 100 µM | SNB-75 > 100 µM | SK-MEL-5 > 100 µM | SR > 100 µM | HT-29 > 100 µM | IGROV-1 > 100 µM | HCT-116 > 100 µM | UACC-257 > 100 µM | OVCAR-5 > 100 µM

N#CC1(CCCCl)CCCCC1
inactive: SK-MEL-2 > 100 µM | TK-10 > 100 µM | MOLT-4 > 100 µM | SK-MEL-28 > 100 µM | UO-31 > 100 µM | U-251 > 100 µM | SNB-75 32.4 µM | SK-MEL-5 > 100 µM | SR > 100 µM | HT-29 > 100 µM | RXF 393 > 100 µM | IGROV-1 > 100 µM | HCT-116 > 100 µM | UACC-257 > 100 µM | OVCAR-5 > 100 µM

Source: ChEMBL document CHEMBL1201862, “PubChem BioAssay data set” (2004)
